Source: the supplement of paper PMC11208160

Experiment: recombinant barcode read abundance after kanamycin selection (control-corrected) (log10(CPM+1)); higher = more efficient recombination; sequences stand for … in AGTGCAGAGAAAATCGGCCAGTTTTCTCTGCCTGCAGTCCGCATGCCGT…AGATTTATGCAGCGGACTGCCTTTCTCCCAAAGTGATAAACCGGACAGTATCATGGACCGGTTTTCCCGGTAATCCGTATTTGCAAGGTTGGTTTCACT; site = the 11-nt target
In short: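 Pooled oligos, each joining a target to an IS621 bridge RNA target-binding loop, were cloned and co-electroporated with a donor plasmid into E. coli. Selective plates carried chloramphenicol/ampicillin/kanamycin and 0.1 mM IPTG, while chloramphenicol/ampicillin LB agar served as control, with two replicates of each. Recombination efficiency rests on averaged, control-corrected counts per million of barcodes at recombinant junctions, shown as log10(CPM+1).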
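Note: IS621 recombinase and bridge RNA in Escherichia coli cells.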

In order of falling “recombinant barcode read abundance (log10)” value:
1. ATGGTCCCTTGGGTTCTAACCTGTTGCCT (site ATAGTCCCTAG)  3.2
2. ATGGTCCCTTGGGTTCTAACCTGTTGCCT (site ATGGTCCCTAG)  3.16
3. ATGGGTCCTTGGGTTCTAACCTGTTGCCT (site ATGGGTCCTAG)  2.55
4. ATGGATACTTGGGTTCTAACCTGTTGCGT (site ATGGATACTAC)  2.51
5. ATTAGGACTTGGGTTCTAACCTGTTGCGA (site ATTAGGACTTC)  2.3
6. ATTCACACTTGGGTTCTAACCTGTTGCGT (site ATTCACACTAC)  2.16
7. ATGAAGACTTGGGTTCTAACCTGTTGCCT (site ATGAAGACTAG)  2.13
8. ATTAGGACTTGGGTTCTAACCTGTTGCAG (site ATTAGGACTCT)  2.1
9. ATGAAGACTTGGGTTCTAACCTGTTGCCT (site ATAAAGACTAG)  2.09
10. ATGGGCCCTTGGGTTCTAACCTGTTGCTC (site ATGGGCCCTGA)  2.09
11. ATGGGTCCTTGGGTTCTAACCTGTTGCCT (site ATAGGTCCTAG)  2.07
12. ATGGACCCTTGGGTTCTAACCTGTTGCTC (site ATGGACCCTGA)  1.93
13. ATGCGAGCTTGGGTTCTAACCTGTTGCAG (site ATGCGAGCTCT)  1.87
14. ATGGTGGCTTGGGTTCTAACCTGTTGCCT (site ATGGTGGCTAG)  1.81
15. ATGGCGGCTTGGGTTCTAACCTGTTGCCT (site ATGGCGGCTAG)  1.69
16. ATGAGAACTTGGGTTCTAACCTGTTGCCT (site ATGAGAACTAG)  1.5
17. ATGGGCCCTTGGGTTCTAACCTGTTGCTC (site ATGGGCCCTAA)  1.36
18. ATGCCCACTTGGGTTCTAACCTGTTGCCT (site ATGCCCACTAG)  1.33
19. ATCGGTCCTTGGGTTCTAACCTGTTGCCT (site ATCGGTCCTAG)  1.29
20. ATGACCGCTTGGGTTCTAACCTGTTGCCA (site ATGACCGCTTG)  1.28
21. ATGATTGCTTGGGTTCTAACCTGTTGCCT (site ATGATTGCTAG)  1.18
22. ATGGTGGCTTGGGTTCTAACCTGTTGCCT (site ATGGTGACTAG)  1.17
23. ATGAAGACTTGGGTTCTAACCTGTTGCCT (site ATTAAGACTAG)  1.12
24. ATTACCTCTTGGGTTCTAACCTGTTGCCT (site ATTACCTCTAG)  1.1
25. ATGAAGACTTGGGTTCTAACCTGTTGCCT (site ATCAAGACTAG)  1.07
26. ATGGGCCCTTGGGTTCTAACCTGTTGCTC (site ATGGGCCCTCA)  1.04
27. ATCTTGTCTTGGGTTCTAACCTGTTGCCT (site ATCTTGTCTAG)  0.977
28. ATCGTACCTTGGGTTCTAACCTGTTGCTA (site CAAAAGGCTAG)  0.973
29. ATGCGAGCTTGGGTTCTAACCTGTTGCAG (site ATGCGAGCTCA)  0.791
30. ATCGTTGCTTGGGTTCTAACCTGTTGCCT (site ATCGTTGCTAG)  0.657
31. ATCTTAACTTGGGTTCTAACCTGTTGCCT (site ATCTTACCTAG)  0.643
32. ATGGGCACTTGGGTTCTAACCTGTTGCCT (site ATGGGCACTAG)  0.639
33. ATGATTCCTTGGGTTCTAACCTGTTGCCT (site ATGATTCCTAG)  0.62
34. ATTAGTGCTTGGGTTCTAACCTGTTGCCT (site AATAGTGCTAG)  0.605
35. ATTAGGACTTGGGTTCTAACCTGTTGCAG (site ATTAGGACTCA)  0.579
36. ATGCGAGCTTGGGTTCTAACCTGTTGCAG (site ATGCGAGCTCG)  0.549
37. ATCGGTCCTTGGGTTCTAACCTGTTGCCT (site ATAGGTCCTAG)  0.476
38. ATGACTACTTGGGTTCTAACCTGTTGCTA (site ATGACTACTTA)  0.456
39. ATTACTTCTTGGGTTCTAACCTGTTGCTT (site GAGTTCCCTGG)  0.406
40. ATGAGAACTTGGGTTCTAACCTGTTGCCT (site ATGAGAACTCG)  0.361
41. ATGGGTCCTTGGGTTCTAACCTGTTGCCT (site ATTGGTCCTAG)  0.356
42. ATCTGGGCTTGGGTTCTAACCTGTTGCCT (site AACTGGGCTAG)  0.339
43. ATCTTAACTTGGGTTCTAACCTGTTGCCT (site ATCTTAGCTAG)  0.337
44. ATGGTGGCTTGGGTTCTAACCTGTTGCCT (site ATGGTGCCTAG)  0.288
45. ATTACTTCTTGGGTTCTAACCTGTTGCTT (site ATTACTTCTAA)  0.282
46. ATGACCGCTTGGGTTCTAACCTGTTGCCA (site AGGACCACTTG)  0.246
47. ATGGTGGCTTGGGTTCTAACCTGTTGCCT (site ATGGTGTCTAG)  0.241
48. ATGGATACTTGGGTTCTAACCTGTTGCGT (site AGGGATACTAC)  0.219
49. ATGGGCACTTGGGTTCTAACCTGTTGCCT (site ATAGGAACTAG)  0.198
50. ATCTTAACTTGGGTTCTAACCTGTTGCCT (site ATCTTAACTAG)  0.183
51. ATCGGTCCTTGGGTTCTAACCTGTTGCCT (site ATTGGTCCTAG)  0.174
52. ATGATTGCTTGGGTTCTAACCTGTTGCCT (site ATGAATGCTAG)  0.149
53. ATGACTACTTGGGTTCTAACCTGTTGCTA (site ATGACTACTGA)  0.136
54. ATCTGGGCTTGGGTTCTAACCTGTTGCCT (site AGCTGGGCTAG)  0.123
55. ATTAGTGCTTGGGTTCTAACCTGTTGCCT (site AGTAGTGCTAG)  0.118
56. ATGCCCACTTGGGTTCTAACCTGTTGCCT (site ATGCCTACTAG)  0.106
57. ATCTGGGCTTGGGTTCTAACCTGTTGCCT (site ATCTGGGCTAG)  0.0992
58. ATCTAGGCTTGGGTTCTAACCTGTTGCCG (site CATAGATCTAT)  0.099
59. ATCGTACCTTGGGTTCTAACCTGTTGCTA (site ATCGTACCTTA)  0.0937
60. ATGGGTCCTTGGGTTCTAACCTGTTGCCT (site ATCGGTCCTAG)  0.0834
61. ATTACCTCTTGGGTTCTAACCTGTTGCCT (site ACTACCTCTAG)  0.0829
62. ATGCGAGCTTGGGTTCTAACCTGTTGCAG (site ATGCGAGCTCC)  0.0805
63. ATTACCTCTTGGGTTCTAACCTGTTGCCT (site AGTACCTCTAG)  0.0695
64. ATGCCCACTTGGGTTCTAACCTGTTGCCT (site ATGCCAACTAG)  0.0683
65. ATCGGTCCTTGGGTTCTAACCTGTTGCCT (site ATGGGTCCTAG)  0.0682
66. ATGTCTACTTGGGTTCTAACCTGTTGCCA (site ATGTCTACTTG)  0.0628
67. ATCTGGGCTTGGGTTCTAACCTGTTGCCT (site ACCTGGGCTAG)  0.0625
68. ATCGTTGCTTGGGTTCTAACCTGTTGCCT (site GTCGTTGCTAG)  0.0617
69. ATGTCTACTTGGGTTCTAACCTGTTGCCA (site ATAACTACTTG)  0.0597
70. ATTCACACTTGGGTTCTAACCTGTTGCGT (site CGATTAGCTCG)  0.0576
71. ATGATTCCTTGGGTTCTAACCTGTTGCCT (site ACGATTCCTAG)  0.0545
72. ATGCCCACTTGGGTTCTAACCTGTTGCCT (site ATGCCGACTAG)  0.049
73. ATGGACCCTTGGGTTCTAACCTGTTGCTC (site TATCGGGCTCT)  0.0488
74. ATCGTTGCTTGGGTTCTAACCTGTTGCCT (site TTCGTTGCTAG)  0.0404
75. ATTAGTGCTTGGGTTCTAACCTGTTGCCT (site ATTAGTGCTAG)  0.0389
76. ATGGCGGCTTGGGTTCTAACCTGTTGCCT (site GTGGAGGCTAG)  0.0374
77. ATCTAGGCTTGGGTTCTAACCTGTTGCCG (site ATCTAGGCTCG)  0.0337
78. ATGGGCCCTTGGGTTCTAACCTGTTGCTC (site ATGGGCCCTTA)  0.0312
79. ATTAGGACTTGGGTTCTAACCTGTTGCGA (site AATAGGACTGC)  0.03
80. ATTACCTCTTGGGTTCTAACCTGTTGCCT (site AATACCTCTAG)  0.0245
81. ATGATTCCTTGGGTTCTAACCTGTTGCCT (site AGGATTCCTAG)  0.0244
82. ATCGTTGCTTGGGTTCTAACCTGTTGCCT (site CTCGTTGCTAG)  0.0176
83. ATCTTGTCTTGGGTTCTAACCTGTTGCCT (site ATCTTGTCTCG)  0.0162
84. ATCTTAACTTGGGTTCTAACCTGTTGCCT (site ATCTTATCTAG)  0.00981
85. ATGATTCCTTGGGTTCTAACCTGTTGCCT (site AAGATTCCTAG)  0
86. ATTAGTGCTTGGGTTCTAACCTGTTGCCT (site ACTAGTGCTAG)  0
